These results are taken from article PMC5736709, “Unravelling the specificity and mechanism of sialic acid recognition by the gut symbiont Ruminococcus gnavus” (Nature Communications, 2017).

Several values for one entry are separate records, joined by “and”; a condition that tells them apart may be missing. Identical values can stand only once. Entries after “also recorded” stand apart in the source; their conditions may differ. Where only a bound is given, the exact number is not on record here.

The target of test [1] is T1, RgCBM40 (Mediterraneibacter gnavus (Ruminococcus gnavus), UniProt A7B557). Description: ITC of sialoglycans binding to RgCBM40 wild type. Also noted: species or system Ruminococcus gnavus ATCC 29149. The note with it: RgCBM40 WT. Here is the method:
(§1) Isothermal titration calorimetry (ITC) experiments were performed using the PEAQ-ITC system (Malvern, Malvern, UK) with a cell volume of 200 µl. Prior to titration protein samples were exhaustively dialysed into PBS. The ligand was dissolved in the dialysis buffer. The cell protein concentration was 115 µM (except for mutant I95A where it was 173 µM and the wild-type interaction with 6′SL where it was 230 µM) and the syringe ligand concentration was 10 mM (25 mM for Neu5Ac). Controls with titrant (sugar) injected into buffer only were subtracted from the data. Analysis was performed using Malvern software, using a single-binding site model. The stoichiometry of binding sites was set to 1.0 as this was evident from the crystal structure. Quantitative and most qualitative experiments were carried out in triplicate.

In test [2] the target is T2, RgCBM40 I95A (Mediterraneibacter gnavus (Ruminococcus gnavus), UniProt A7B557, I95A).
T2 sequence (A7B557 50-237 I95A): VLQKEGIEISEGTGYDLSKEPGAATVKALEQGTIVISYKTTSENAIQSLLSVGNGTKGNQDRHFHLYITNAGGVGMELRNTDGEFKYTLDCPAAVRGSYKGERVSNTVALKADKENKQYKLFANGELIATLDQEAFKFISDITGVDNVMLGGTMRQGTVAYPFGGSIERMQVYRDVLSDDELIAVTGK
Description: ITC of sialoglycans binding to RgCBM40 mutant I95A. On the set-up: species or system Ruminococcus gnavus ATCC 29149. The note with it: 173 µM protein, syringe 10 mM sugar (25 mM for Neu5Ac), * = estimate only. On the procedure: (§2) Site directed mutagenesis of RgGH33 to introduce the D282A mutation in the active site was carried out using the QuikChange kit, following the manufacturer’s instructions, Agilent (Santa Clara, CA, USA). Site-directed mutants of RgCBM40; I95A, Y116A, E126A, R128A, R204A and double mutant R128A/R204A, were obtained from NZyTech (Lisbon, Portugal). The primers are listed in Supplementary Table 4. The integrity of the RgGH33 and RgCBM40 mutants was checked by circular dichroism (CD).
as §1

For test [3], the target named is T3, RgCBM40 Y116A (Mediterraneibacter gnavus (Ruminococcus gnavus), UniProt A7B557, Y116A).
T3 sequence (A7B557 50-237 Y116A): T2 sequence (A7B557 50-237 I95A)
The test is described as follows: ITC of sialoglycans binding to RgCBM40 mutant Y116A. Also noted: species or system Ruminococcus gnavus ATCC 29149. Here is the method: as §2, §1

Test [4] deals with T4, RgCBM40 E126A (Mediterraneibacter gnavus (Ruminococcus gnavus), UniProt A7B557, E126A).
T4 sequence (A7B557 50-237 E126A): T2 sequence (A7B557 50-237 I95A)
The test is described as follows: ITC of sialoglycans binding to RgCBM40 mutant E126A. On the set-up: species or system Ruminococcus gnavus ATCC 29149. On the procedure: as §2, §1

The target in test [5] is T5, RgCBM40 R128A (Mediterraneibacter gnavus (Ruminococcus gnavus), UniProt A7B557, R128A).
T5 sequence (A7B557 50-237 R128A): T2 sequence (A7B557 50-237 I95A)
The test is described as follows: ITC of sialoglycans binding to RgCBM40 mutant R128A. Also noted: species or system Ruminococcus gnavus ATCC 29149. Here is the method:
as §2, §1

For test [6], the target named is T6, RgCBM40 R204A (Mediterraneibacter gnavus (Ruminococcus gnavus), UniProt A7B557, R204A).
T6 sequence (A7B557 50-237 R204A): T2 sequence (A7B557 50-237 I95A)
Description: ITC of sialoglycans binding to RgCBM40 mutant R204A. On the set-up: species or system Ruminococcus gnavus ATCC 29149. On the procedure:
as §2, §1

Test [7] concerns the target T7, RgCBM40 R128A/R204A (Mediterraneibacter gnavus (Ruminococcus gnavus), UniProt A7B557, R128A/R204A).
T7 sequence (A7B557 50-237 R128A/R204A): T2 sequence (A7B557 50-237 I95A)
Description: ITC of sialoglycans binding to RgCBM40 double mutant R128A/R204A. Also noted: species or system Ruminococcus gnavus ATCC 29149. On the procedure: as §2, §1

The target in test [8] is T8, RgCBM40 Y210A (Mediterraneibacter gnavus (Ruminococcus gnavus), UniProt A7B557, Y210A).
T8 sequence (A7B557 50-237 Y210A): T2 sequence (A7B557 50-237 I95A)
Description: ITC of sialoglycans binding to RgCBM40 mutant Y210A. Also noted: species or system Ruminococcus gnavus ATCC 29149. On the procedure:
as §1

The target of test [9] is T1, RgCBM40. Description: STD NMR of sialoglycans with RgCBM40 WT. Also noted: species or system Ruminococcus gnavus ATCC 29149. The note with it: 1 mM sialoglycan, 50 μM RgCBM40 WT, 288 K; 'exception' = monosaccharides for which binding was not detected. On the procedure: ^1H and ^13C resonance assignment for all the sugars was performed on the bases of 1D ^1H, 2D DQF-COSY, TOCSY, HSQC and NOESY experiments run on the free ligands in unbuffered D2O, pH 7.0. For STD NMR experiments, all the samples consisted of 1 mM sialoglycans and 50 μM RgCBM40 (WT or I95A mutant) in D2O buffer solution of 10 mM Tris-d11 pH 7.8 and 100 mM NaCl (ligand: protein ratio 20:1). An STD pulse sequence that included 2.5 ms and 5 ms trim pulses and a 3 ms spoil gradient was used. Saturation was achieved applying a train of 50 ms Gaussian pulses (0.40 mW) on the f2 channel, at 0.60 p.p.m. (on-resonance experiments) and 40 p.p.m. (off-resonance experiments). The broad protein signals were removed using a 40 ms spinlock (T1ρ) filter. All the experiments were recorded at ^1H frequency of 800.23 MHz on a Bruker Avance III spectrometer equipped with a 5 mm probe TXI 800 MHz H-C/N-D-05 Z BTO, at 288 K. For all the sialoglycans in the presence of RgCBM40, an STD experiment with a saturation time of 2 s and a relaxation delay of 5 s was performed, as a first test for binding. For the confirmed binders, the STD NMR experiments were carried out at different saturation times (0.5, 1, 2, 3, 4 and 5 s) with 1 K scans and relaxation delay of 5 s, in order to obtain the binding epitope mapping. The resulting build-up curves for each proton were fitted mathematically to a mono-exponential equation (y = a×[1-exp(b×x)]), from which the initial slopes (a×b) were obtained. For each ligand, the binding epitope mapping was obtained by dividing the initial slopes by the one of the H7 proton of the corresponding sialic acid ring, to which an arbitrary value of 100% was assigned. This normalisation of the STD values allows the comparison across all the sialoglycans.

Test [10] relates to RgCBM40 binding to LS174T MUC2. The test is described as follows: ELISA of RgCBM40 binding to LS174T MUC2 in competition with sugars. On the set-up: species or system Ruminococcus gnavus ATCC 29149. As to conditions: RgCBM40 preincubated with 1 mM free sugar overnight at 4 °C; immobilised LS174T MUC2; A450. On the procedure:
RgCBM40 binding to purified mucins was tested by ELISA. Mucins (100 μl of 10 μg ml^−1) were immobilised onto a high binding 96 well plate (Greiner, Stonehouse, UK) overnight at 4 °C. All subsequent steps were carried out for 1 h at room temperature. The plates were blocked with 3% (w/v) BSA, incubated with RgCBM40 (500 μg ml^−1), followed by an incubation with 1:5000 anti-RgNanH (raised in rabbit, Biogenes) then with 1:5000 anti-rabbit secondary antibody (raised in donkey) conjugated to peroxidase (GE Healthcare). Between each step, the plate was washed with 3 × 300 μl of PBS containing 0.05% (v/v) Tween 20 (PBST). Prior to detection, an additional wash step and 30 s incubation with PBST was carried out. Binding was detected using tetramethylbenzidine (TMB) visualisation solution (Biolegend, San Diego, CA, USA) which was incubated for 15 min. The reaction was stopped by addition of 2 M H2SO4 and absorbance measured at 450 nm using a plate-reader (Bench Marl Plus, Biorad), subtracting background readings at 570 nm. Negative controls including no RgCBM40 (subtracted from A450 value), no primary or no secondary antibody were carried out in parallel. For comparison between plates, values were normalised to the reading for LS174T MUC2 which was arbitrarily set at 100%. For enzymatic treatment of the mucin, LS174T MUC2 (2 mg ml^−1) was incubated with sialidases (2 µg ml^−1) overnight at 4 °C on a rotary wheel prior to immobilisation on the plate. For chemical treatment of mucin, LS174T MUC2 was incubated with 0.1 M trifluoroacetic acid (TFA) at 80 °C for 1 h, dialysed against ammonium bicarbonate (50 mM), lyophilised and redissolved in H2O. For the competition assays, RgCBM40 was incubated with 1 mM of free sugar overnight at 4 °C on a rotary wheel prior to addition to the ELISA plate as above. Experiments were carried out in triplicate.

The target of test [11] is T9, LS174T MUC2 treated with trifluoroacetic acid or a sialidase to remove sialic acid (human (endogenous in LS174T), UniProt Q02817 21-5289, O-glycans with sialic acid removed by TFA or by a sialidase from C. perfringens, S. typhimurium, A. muciniphila or R. gnavus; reduced with dithiothreitol and alkylated with iodoacetamide).
T9 construct: MUC2, gel-forming mucin secreted by the human LS174T cell line; also called MUC2 treated chemically (TFA) or enzymatically with a sialidase (Cp, St, Am/Ak, Rg)
The test is described as follows: ELISA; mucins (100 µl of 10 µg ml^-1) immobilised on a 96 well plate, RgCBM40 at 500 µg ml^-1 for 1 h at room temperature, detected with rabbit anti-RgNanH and a peroxidase-conjugated secondary antibody, A450; values normalised to LS174T MUC2 = 100%. The note with it: both partners purified. (In general: ELISA stands for enzyme-linked immunosorbent assay.)

One may read the Kd as the constant that tells how readily two partners part at equilibrium. Take `CC(=O)N[C@H]1[C@H]([C@H](O)[C@H](O)CO)OC(O)(C(=O)O)C[C@@H]1O` (stereo partly drawn) [Neu5Ac, N-acetylneuraminic acid]: the Kd is ~21 mM and ~20 mM in test [1] (Kd, ITC in PBS, 115-230 μM protein in cell, syringe 10 mM sugar (25 mM for Neu5Ac), * = estimate only, Kd too high to determine); about 23 mM in [2]; over 25 mM in test [3] (ITC); over 25 mM in [4] (ITC); over 25 mM in test [5] (ITC); over 25 mM in test [6] (ITC). The dissociation constant (Kd) in [7] (ITC) and in test [8] (ITC) was over 25 mM throughout. Further, the “Binding to RgCBM40 (in words)” value in test [1] was “weak binding”. Also, the “Binding by ITC (in words)” value in [3], in test [4], in test [5], in [6], in test [7] and in [8] was “abolished” throughout. For the same molecule, in test [9], the “Binding to RgCBM40 detected by STD NMR” value is on record as “exception; also recorded: no interaction was observed”. Moreover, the “Effect of free sugar on adherence of RgCBM40 to MUC2” value in [10] is “no effect”.

B1: RgCBM40 (residues 50–237 of RgNanH), preparation for all other protein assays (ELISA) (domain or fragment, Ruminococcus gnavus ATCC 29149, UniProt A7B557 50-237, looked up)
chain: T2 sequence (A7B557 50-237 I95A)
notes: in the ELISA it was detected with anti-RgNanH antiserum
Regarding B1, in test [11], the binding result was “binds”.
